Results reported in PubChem BioAssay AID2060912 (Molecular Pharmacology Branch, DTP, NCI, 2025).

System: HUVEC/MSC spheroids viability
Assay: Human HUVEC/MSC cell line growth inhibition [KRAS2];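 as to viability, T/C: percent of DMSO vehicle control luminescence so 100% = untreated viability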
Conditions: for IC50: curve of first compound; for viability, T/C: stronger effect = lower value
Description: Multicellular complex tumor spheroid response to RAS pathway inhibitors in combination with a targeted agents in patient-derived cell lines with oncogenic KRAS variants from multiple cancer types
A high-throughput screen of multi-cell type tumor spheroids was designed to identify active combinations of targeted small molecules and KRAS pathway inhibitors. Complex spheroids include a stromal component modeled by human endothelial cells (HUVEC) and fibroblasts modeled by human mesenchymal stem cells (MSCs). The concentration ranges selected for each drug and investigational agent were based upon clinically achievable concentrations if the clinical Cmax of the agent was known. * [This particular assayID is a followup dataset requested by reviewers of the manuscript. It is a test of the HUVEC and MSC without the tumor cells, and was conducted using different drug plates and a different plate layout.]
Compounds. The drugs and investigational agents: BI-3406 (NSC825286), BAY-293 (NSC824723), batoprotafib (TNO155; NSC825523), sotorasib (AMG 510; NSC818433), MRTX1257 (NSC819558), elimusertib (BAY 1895344; NSC800525), molibresib (GSK525762; NSC774829), temuterkib (LY3214996; NSC803410), venetoclax (NSC766270), alisertib (NSC759677), olaparib (NSC753686), talazoparib (NSC767125), erdafitinib (NSC781556), ipatasertib (NSC767898), cabozantinib (NSC761068), nintedanib (NSC756659), abemaciclib (NSC768073), docetaxel (NSC628503), trametinib (NSC758246), and sapanisertib (NSC764658) were obtained from the National Cancer Institute (NCI) Developmental Therapeutics Program Chemical Repository. The FDA-approved anticancer drug set is available from the Developmental Therapeutics Program. […] The stock solutions were prepared in dimethyl sulfoxide (DMSO, Sigma-Aldrich, St. Louis, MO, cat. D2650) at 800-fold the tested concentration and stored at -70 degrees C prior to their use. All drugs and investigational agents were tested over a range starting from a high concentration at or near the clinical Cmax and decreasing in half-log increments. If the clinical Cmax for an agent had not been determined, the highest concentration tested was 10 microM.
Cell Culture. All cells were maintained in an incubator at 37 degrees C and 5% CO2 with 95% humidity. The PDC lines were cultured according to standard operating procedures established by the NCI PDMR (https://pdmr.cancer.gov/sops/default.htm). Briefly, all PDCs were thawed and cultured in Matrigel-coated flasks prepared with a working solution of 1X Ham's F-12 nutrient mix, without supplementation (Invitrogen, Waltham, MA, cat. 11765054), 100 U/mL penicillin-streptomycin (Invitrogen, cat. 15140122), and 2.5% Matrigel (Corning Inc., Corning, NY, cat. 354248) for the first three passages. All PDCs were cultured in complete DMEM/F-12 media containing advanced DMEM/F-12 (Invitrogen, cat. 12634028), 4.9% defined fetal bovine serum, heat inactivated (HyClone Laboratories Inc., Logan, UT, cat. SH30070.03HI), 389 ng/mL hydrocortisone (Sigma-Aldrich, cat. H4001), 9.7 ng/mL human EGF recombinant protein (Invitrogen, cat. PHG0313), 23.4 microg/mL adenine (Sigma-Aldrich, cat. A2786), 97.3 U/mL penicillin-streptomycin (Invitrogen, cat. 15140122), 1.9 mM L-glutamine (Invitrogen, cat. 25030081), and 9.7 microM Y-27632 dihydrochloride (Tocris Bioscience, Bristol, United Kingdom, cat. 1254). The PDCs were cultured in complete DMEM/F12 media without 9.7 microM Y-27632 dihydrochloride for at least two passages prior to the screen. The established cell line HOP-62 was cultured in RPMI 1640 medium, HEPES (Invitrogen, cat. 22400105) with 10% defined fetal bovine serum (HyClone Laboratories Inc., cat. SH30070.03) and 2 mM L-glutamine (Invitrogen, cat. 25030081). The pooled donor HUVEC were cultured in endothelial cell growth medium 2 (PromoCell, Heidelberg, Germany, cat. C-22011) and the hMSC were cultured in mesenchymal stem cell growth medium 2 (PromoCell, cat. C-28009). […]

CC(=O)Nc1cccc(-n2c(=O)n(C3CC3)c(=O)c3c(Nc4ccc(I)cc4F)n(C)c(=O)c(C)c32)c1 + C=CC(=O)N1CCN(c2nc(=O)n(-c3c(C)ccnc3C(C)C)c3nc(-c4c(O)cccc4F)c(F)cc23)C(C)C1
IC50 (second compound 0.0316 µM): 16.1 nM | IC50 (second compound 0.1 µM): 17.8 nM | IC50 (second compound 0.316 µM): 16.8 nM | IC50 (second compound 1 µM): 17.9 nM | IC50 (second compound 3.16 µM): 16.3 nM | IC50 (second compound 10 µM): 13.7 nM | viability, T/C (second compound 0.0316 µM, first compound 94.9 pM): 126% | viability, T/C (second compound 0.0316 µM, first compound 0.0003 µM): 140% | viability, T/C (second compound 0.0316 µM, first compound 0.000949 µM): 163% | viability, T/C (second compound 0.0316 µM, first compound 0.003 µM): 114% | viability, T/C (second compound 0.0316 µM, first compound 0.00949 µM): 77.1% | viability, T/C (second compound 0.0316 µM, first compound 0.03 µM): 20.7% | viability, T/C (second compound 0.1 µM, first compound 94.9 pM): 92.7% | viability, T/C (second compound 0.1 µM, first compound 0.0003 µM): 130% | viability, T/C (second compound 0.1 µM, first compound 0.000949 µM): 141% | viability, T/C (second compound 0.1 µM, first compound 0.003 µM): 113% | viability, T/C (second compound 0.1 µM, first compound 0.00949 µM): 88.3% | viability, T/C (second compound 0.1 µM, first compound 0.03 µM): 18.6% | viability, T/C (second compound 0.316 µM, first compound 94.9 pM): 126% | viability, T/C (second compound 0.316 µM, first compound 0.0003 µM): 157% | viability, T/C (second compound 0.316 µM, first compound 0.000949 µM): 151% | viability, T/C (second compound 0.316 µM, first compound 0.003 µM): 119% | viability, T/C (second compound 0.316 µM, first compound 0.00949 µM): 80.3% | viability, T/C (second compound 0.316 µM, first compound 0.03 µM): 20.6% | viability, T/C (second compound 1 µM, first compound 94.9 pM): 148% | viability, T/C (second compound 1 µM, first compound 0.0003 µM): 133% | viability, T/C (second compound 1 µM, first compound 0.000949 µM): 148% | viability, T/C (second compound 1 µM, first compound 0.003 µM): 112% | viability, T/C (second compound 1 µM, first compound 0.00949 µM): 89.8% | viability, T/C (second compound 1 µM, first compound 0.03 µM): 19.7% | viability, T/C (second compound 3.16 µM, first compound 94.9 pM): 144% | viability, T/C (second compound 3.16 µM, first compound 0.0003 µM): 157% | viability, T/C (second compound 3.16 µM, first compound 0.000949 µM): 170% | viability, T/C (second compound 3.16 µM, first compound 0.003 µM): 120% | viability, T/C (second compound 3.16 µM, first compound 0.00949 µM): 82% | viability, T/C (second compound 3.16 µM, first compound 0.03 µM): 16.8% | viability, T/C (second compound 10 µM, first compound 94.9 pM): 134% | viability, T/C (second compound 10 µM, first compound 0.0003 µM): 157% | viability, T/C (second compound 10 µM, first compound 0.000949 µM): 164% | viability, T/C (second compound 10 µM, first compound 0.003 µM): 130% | viability, T/C (second compound 10 µM, first compound 0.00949 µM): 70.4% | viability, T/C (second compound 10 µM, first compound 0.03 µM): 8.78%
